The results in this text go back to PMC6591251, “Discovery of potent necroptosis inhibitors targeting RIPK1 kinase activity for the treatment of inflammatory disorder and cancer metastasis” (Cell Death & Disease, 2019).

For one assay, the system named is L929 cells. The assay is described as follows: TNF-induced necroptosis, cell viability by ATP levels. The conditions noted are these: Mus musculus, L929, 24 h. Format: cell-based. The procedure:
Necroptosis is tightly regulated by RIP kinases including RIPK1 and RIPK3. To develop new necroptosis inhibitors, we screened a small-molecule library of around 240 potential kinase inhibitors that were designed with novel structures to affect the ATP-binding pocket of protein kinases. Human colon cancer HT-29 cells were treated with these compounds for […], followed by treatment with necroptotic stimuli (TNFα, Smac mimetic, and z-VAD) that are known to activate TNF-mediated necroptosis. After 48 h, cell viability was analyzed by monitoring ATP levels.
Fig. 1 PK6 efficiently blocks TNF-α induced necroptosis in both human and mouse cells. a HT-29 cells cultured in 96-well plates were pretreated with the indicated compounds (10 μM) from a library consisting of ~240 compounds that we designed with novel structures for 1 h and subsequently treated with 40 ng/ml TNF-α (T), 100 nM Smac mimetic (S), and the caspase inhibitor 20 μM z-VAD(Z) for 48 h. Cell viability was assessed by measuring ATP levels. Data are represented as the mean ± standard deviation of duplicates. b Chemical structure of PK6. c Dose response curve and EC50 ± SD value for PK6 in TNF-α induced necroptosis in HT-29 cells. Cells were pretreated with indicated concentrations of PK6 for 1 h prior to the treatment with T (40 ng/ml), S (100 nM), and Z (20 μM) for 48 h. Cell viability was assessed by measuring ATP levels. d U937 cells were pretreated with indicated concentrations of PK6 for 1 h followed by the treatment with T (40 ng/ml), S (100 nM), and Z (20 μM) for 24 h. e MEF cells were pretreated with indicated concentrations of PK6 for 1 h followed by the treatment with T (40 ng/ml), S (100 nM), and Z (20 μM) for 24 h. f L929 cells were pretreated with indicated concentrations of PK6 for 1 h prior to the treatment with S (100 nM) and Z (20 μM) for 24 h.
Fig. 2 Chemical optimization of PK6 leads to improvements in anti-necroptotic activity. a, b The effects of the indicated compounds on cell viability were examined in HT-29 cells (a) and L929 cells (b). HT-29 cells were treated as indicate for 48 h and L929 cells for 24 h. Cell viability was assessed by measuring ATP levels. Data are represented as the mean ± standard deviation of triplicates. c Structure and EC50 ± SD value of each compound are shown in the table. EC50 values are the average of at least two independent determinations. d Lead optimization of PK6 TEXT PRINTED IN THE PICTURE: (c) PK6: EC50(nM) HT-29: 1200±53; EC50(nM) L929: 760±26 | (c) PK67: EC50(nM) HT-29: 250±6.3; EC50(nM) L929: 130±6.8 | (c) PK81: EC50(nM) HT-29: 120±7.6; EC50(nM) L929: 20±0.98 | (c) PK84: EC50(nM) HT-29: 97±6.7; EC50(nM) L929: 45±2.1 | (c) PK93: EC50(nM) HT-29: 130±36; EC50(nM) L929: 30±7.4 | (c) PK86: EC50(nM) HT-29: 73±3.9; EC50(nM) L929: 15±1.0 | (c) PK68: EC50(nM) HT-29: 23±1.4; EC50(nM) L929: 13±0.85
The cell viability was analyzed by using the CellTiter-Glo Luminescent Cell Viability Assay kit following the manufacturer’s instructions (Promega). Luminescence was measured with SpectraMax i3x (Molecular Devices).

The next assay has as its target T1, mouse RIPK1 (Mus musculus, UniProt Q60855).
T1 construct: purchased SignalChem
The assay can be described thus: In vitro kinase activity assay (ADP-Glo). It is filed as biochemical. Particulars: recombinant mouse RIPK1. The procedure:
(§1) Having shown that PK6 and PK68 can inhibit activation of both RIPK1 and RIPK3 during TNF-mediated necroptosis, we sought to determine if PK6 and PK68 can directly target RIPK1 or and RIPK3 by performing in vitro kinase assays. Both PK6 and PK68 were able to block the kinase activities of both human RIPK1 and mouse RIPK1 in vitro (Fig. 4a and Supplementary Fig. 19).
The recombinant RIPK1 or RIPK3 protein was incubated with DMSO or the indicated compound for 15 min in the assay buffer (25 mM HEPES pH 7.2, 20 mM MgCl2, 12.5 mM MnCl2, 12.5 mM β-glycerol phosphate, 5 mM EGTA, 2 mM EDTA, and 2 mM DTT). Then, ATP (50 μM) and the substrate MBP (20 μM) were added to the reaction at room temperature for 120 min. The luminescence was measured to calculate the kinase activity after the addition of the ADP-Glo Kinase Assay kit following the manufacturer’s instructions (Promega).
Supplementary Figure 19. Both PK6 and PK68 were able to block the kinase activity of mouse RIPK1 in vitro.
In vitro kinase activity assays using recombinant mouse RIPK1 were performed. Recombinant proteins were incubated with PK6(A) and PK68(B) as indicated. Data represent mean value ±standard deviation.
(In ADP-Glo the light output rises with the ADP produced.)

The next assay addresses T2, RIPK3 (Homo sapiens, UniProt Q9Y572).
T2 construct: purchased Reaction Biology Corporation
The assay is described as follows: In vitro kinase activity assay (ADP-Glo). It is filed as biochemical. Particulars: even at a 1000 nM concentration. The procedure: as §1
Recombinant proteins were incubated with PK6 and PK68 as indicated. […] NIH3T3-RIPK3 cells were pretreated with indicated compounds for 1 h and subsequently treated with T (40 ng/ml)/S (100 nM)/Z (20 μM) or AP20187 (100 nM) for 24 h. Cell viability was determined by measuring ATP levels. e PK6 and PK68 have no effect on MLKL dimerization-induced cell death in HeLa-MLKL (1–190) cells that stably express MLKL (1–190aa) fused to DmrB. HeLa-MLKL (1–190) cells were pretreated with indicated compounds for 1 h and subsequently treated with AP20187 (100 nM) for 24 h. Cell viability was determined by measuring ATP levels. […]
The recombinant RIPK1 or RIPK3 protein was incubated with DMSO or the indicated compound for 15 min in the assay buffer (25 mM HEPES pH 7.2, 20 mM MgCl2, 12.5 mM MnCl2, 12.5 mM β-glycerol phosphate, 5 mM EGTA, 2 mM EDTA, and 2 mM DTT). […] The luminescence was measured to calculate the kinase activity after the addition of the ADP-Glo Kinase Assay kit following the manufacturer’s instructions (Promega).

Like-named read-outs stand apart in the source and are kept apart here.

T1 sequence (Q60855 whole entry): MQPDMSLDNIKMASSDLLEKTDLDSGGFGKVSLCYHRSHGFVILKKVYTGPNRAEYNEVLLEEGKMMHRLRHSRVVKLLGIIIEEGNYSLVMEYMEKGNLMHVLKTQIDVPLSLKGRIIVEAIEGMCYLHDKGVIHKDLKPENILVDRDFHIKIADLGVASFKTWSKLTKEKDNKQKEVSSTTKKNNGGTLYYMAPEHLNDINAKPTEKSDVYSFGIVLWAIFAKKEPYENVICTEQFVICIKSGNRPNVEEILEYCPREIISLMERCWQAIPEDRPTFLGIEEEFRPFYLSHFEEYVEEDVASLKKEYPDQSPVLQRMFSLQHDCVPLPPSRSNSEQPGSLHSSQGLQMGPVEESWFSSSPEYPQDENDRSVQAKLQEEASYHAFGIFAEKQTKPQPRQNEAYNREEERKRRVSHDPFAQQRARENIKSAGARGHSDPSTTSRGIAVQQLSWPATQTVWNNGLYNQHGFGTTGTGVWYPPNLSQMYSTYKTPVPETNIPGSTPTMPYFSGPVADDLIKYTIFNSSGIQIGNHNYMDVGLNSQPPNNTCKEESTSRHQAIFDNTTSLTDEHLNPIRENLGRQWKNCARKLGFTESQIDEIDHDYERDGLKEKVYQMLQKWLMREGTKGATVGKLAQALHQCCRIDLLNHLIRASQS
T2 sequence (Q9Y572 whole entry): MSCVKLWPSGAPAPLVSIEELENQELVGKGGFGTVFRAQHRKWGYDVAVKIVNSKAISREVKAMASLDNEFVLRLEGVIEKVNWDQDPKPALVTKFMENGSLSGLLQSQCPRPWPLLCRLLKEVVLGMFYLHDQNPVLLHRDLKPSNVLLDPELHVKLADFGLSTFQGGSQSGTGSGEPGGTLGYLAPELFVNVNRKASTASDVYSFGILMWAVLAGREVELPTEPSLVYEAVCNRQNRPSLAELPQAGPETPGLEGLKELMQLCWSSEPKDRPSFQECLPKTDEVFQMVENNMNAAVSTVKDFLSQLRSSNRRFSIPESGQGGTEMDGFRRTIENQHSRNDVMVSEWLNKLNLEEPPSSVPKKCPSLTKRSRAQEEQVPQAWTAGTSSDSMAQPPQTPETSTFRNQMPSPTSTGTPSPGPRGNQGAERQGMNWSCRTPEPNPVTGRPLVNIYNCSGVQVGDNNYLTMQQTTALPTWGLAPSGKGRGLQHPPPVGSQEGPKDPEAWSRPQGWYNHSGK

Usually EC50 stands for the concentration needed to bring the measured effect to its halfway point. For `CC(=O)Nc1nc2ccc(-c3cnc(C)c(NC(=O)OC4CCCCC4)c3)cc2s1` [PK68, cyclohexyl (5-(2-acetamidobenzo[d]thiazol-6-yl)-2-methylpyridin-3-yl)carbamate], the EC50 in the assay with L929 cells (read-out: EC50(nM) L929) was determined as 13 nM. The “kinase activity of mouse RIPK1 in vitro” value at mouse RIPK1 is “able to block”. Further, the RIPK3 kinase activity entry at RIPK3 is “neither PK6 nor PK68 affected RIPK3 kinase activity”.

As for `CC(=O)Nc1nc2ccc(-c3cnc(Cl)c(NC(=O)Cc4ccccc4)c3)cc2s1` [PK6, N-(5-(2-acetamidobenzo[d]thiazol-6-yl)-2-chloropyridin-3-yl)-2-phenylacetamide], the concentration for a half-maximal effect (EC50) with L929 cells (S 100 nM and Z 20 μM, read-out: EC50, TNF-induced necroptosis) is approximately 760 nM. Further, the “kinase activity of mouse RIPK1 in vitro” value at mouse RIPK1 is given as “able to block”. Besides, the RIPK3 kinase activity entry at RIPK3 is “neither PK6 nor PK68 affected RIPK3 kinase activity”.
